This is an account of results in patent US11306092B2, “Amino indole compounds useful as TLR inhibitors” (BRISTOL-MYERS SQUIBB COMPANY, priority 2017, dated 2022).

Common to all, as to format: cell-based
One experiment deals with T1, human TLR7 (Homo sapiens, UniProt Q9NYK1).
T1 construct: host or cells: HEK-Blue cells
T1 sequence (Q9NYK1 27-1049): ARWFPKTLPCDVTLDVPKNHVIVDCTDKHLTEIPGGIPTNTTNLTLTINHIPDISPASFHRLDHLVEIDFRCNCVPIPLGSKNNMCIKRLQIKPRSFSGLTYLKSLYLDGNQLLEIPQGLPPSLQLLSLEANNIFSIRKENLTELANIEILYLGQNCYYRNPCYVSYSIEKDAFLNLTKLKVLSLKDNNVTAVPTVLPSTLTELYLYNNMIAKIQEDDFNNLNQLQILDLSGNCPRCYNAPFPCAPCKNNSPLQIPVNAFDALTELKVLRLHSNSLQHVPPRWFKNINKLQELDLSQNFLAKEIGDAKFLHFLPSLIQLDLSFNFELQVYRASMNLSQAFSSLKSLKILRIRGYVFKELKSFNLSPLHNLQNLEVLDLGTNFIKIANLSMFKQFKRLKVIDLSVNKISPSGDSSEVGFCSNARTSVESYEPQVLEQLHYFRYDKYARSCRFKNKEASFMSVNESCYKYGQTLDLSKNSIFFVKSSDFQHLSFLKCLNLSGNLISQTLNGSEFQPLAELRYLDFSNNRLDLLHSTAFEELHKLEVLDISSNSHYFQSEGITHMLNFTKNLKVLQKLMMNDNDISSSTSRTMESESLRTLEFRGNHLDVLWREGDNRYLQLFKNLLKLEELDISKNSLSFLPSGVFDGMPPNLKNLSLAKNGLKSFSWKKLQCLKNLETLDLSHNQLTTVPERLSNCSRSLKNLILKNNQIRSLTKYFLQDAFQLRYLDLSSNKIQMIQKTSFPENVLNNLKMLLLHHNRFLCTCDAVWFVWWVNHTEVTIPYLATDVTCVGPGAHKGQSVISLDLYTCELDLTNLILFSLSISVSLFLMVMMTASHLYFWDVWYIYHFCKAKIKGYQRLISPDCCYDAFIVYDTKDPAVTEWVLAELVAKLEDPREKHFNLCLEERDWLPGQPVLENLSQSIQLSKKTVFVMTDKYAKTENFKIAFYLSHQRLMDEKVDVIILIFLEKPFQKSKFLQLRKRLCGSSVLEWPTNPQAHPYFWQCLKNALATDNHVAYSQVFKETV
Put plainly: TLR7 inhibition reporter assay (HEK-Blue SEAP reporter). The following applies: HEK-Blue cells overexpressing human TLR7; gardiquimod 7.5 μM; 22 hour incubation. In a few lines:
(§1)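 Compound treatment: 30 min, RT, 0.05 nM–50 μM final. Agonist: TLR7 gardiquimod 7.5 μM; TLR8 R848 15.9 μM; TLR9 ODN2006 5 nM. Incubation 22 h, 37 °C, 5% CO2. Readout SEAP, HEK-Blue Detection.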
On the technique in general: Reporter assays use an easily measured gene product as a stand-in for the process of interest.

Another experiment deals with T2, human TLR8 (Homo sapiens, UniProt Q9NR97).
T2 construct: host or cells: HEK-Blue cells
T2 sequence (Q9NR97 27-1041): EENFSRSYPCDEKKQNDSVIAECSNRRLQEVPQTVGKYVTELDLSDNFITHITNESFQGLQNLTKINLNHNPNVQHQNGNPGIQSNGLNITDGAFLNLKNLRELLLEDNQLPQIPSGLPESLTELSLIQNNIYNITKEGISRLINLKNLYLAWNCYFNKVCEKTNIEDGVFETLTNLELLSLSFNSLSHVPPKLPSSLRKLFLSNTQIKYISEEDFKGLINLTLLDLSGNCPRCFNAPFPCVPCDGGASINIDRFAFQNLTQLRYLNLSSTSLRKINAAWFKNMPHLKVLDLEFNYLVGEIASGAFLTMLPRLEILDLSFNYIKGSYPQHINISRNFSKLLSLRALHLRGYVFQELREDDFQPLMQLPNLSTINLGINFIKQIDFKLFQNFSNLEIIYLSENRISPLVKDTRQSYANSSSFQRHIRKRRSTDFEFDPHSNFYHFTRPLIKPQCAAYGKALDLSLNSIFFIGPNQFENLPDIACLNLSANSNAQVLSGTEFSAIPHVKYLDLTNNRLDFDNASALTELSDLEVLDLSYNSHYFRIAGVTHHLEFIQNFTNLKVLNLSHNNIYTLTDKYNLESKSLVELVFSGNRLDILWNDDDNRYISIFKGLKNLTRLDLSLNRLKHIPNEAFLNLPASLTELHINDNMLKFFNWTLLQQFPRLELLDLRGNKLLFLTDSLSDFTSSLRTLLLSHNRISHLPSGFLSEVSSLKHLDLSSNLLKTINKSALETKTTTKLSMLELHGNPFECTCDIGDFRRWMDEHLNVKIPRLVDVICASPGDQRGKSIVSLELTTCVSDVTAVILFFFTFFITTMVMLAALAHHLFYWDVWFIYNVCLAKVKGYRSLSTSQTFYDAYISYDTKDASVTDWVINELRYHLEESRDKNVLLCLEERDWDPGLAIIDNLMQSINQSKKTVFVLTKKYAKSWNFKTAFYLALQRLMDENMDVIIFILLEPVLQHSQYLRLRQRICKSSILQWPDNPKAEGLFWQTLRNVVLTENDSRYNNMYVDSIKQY
The experiment can be described thus: TLR8 inhibition reporter assay (HEK-Blue SEAP reporter). The following applies: HEK-Blue cells overexpressing human TLR8; R848 15.9 μM; 22 hour incubation. In a few lines:
as §1

In another experiment the target is T3, human TLR9 (Homo sapiens, UniProt Q9NR96).
T3 construct: host or cells: HEK-Blue cells
T3 sequence (Q9NR96 26-1032): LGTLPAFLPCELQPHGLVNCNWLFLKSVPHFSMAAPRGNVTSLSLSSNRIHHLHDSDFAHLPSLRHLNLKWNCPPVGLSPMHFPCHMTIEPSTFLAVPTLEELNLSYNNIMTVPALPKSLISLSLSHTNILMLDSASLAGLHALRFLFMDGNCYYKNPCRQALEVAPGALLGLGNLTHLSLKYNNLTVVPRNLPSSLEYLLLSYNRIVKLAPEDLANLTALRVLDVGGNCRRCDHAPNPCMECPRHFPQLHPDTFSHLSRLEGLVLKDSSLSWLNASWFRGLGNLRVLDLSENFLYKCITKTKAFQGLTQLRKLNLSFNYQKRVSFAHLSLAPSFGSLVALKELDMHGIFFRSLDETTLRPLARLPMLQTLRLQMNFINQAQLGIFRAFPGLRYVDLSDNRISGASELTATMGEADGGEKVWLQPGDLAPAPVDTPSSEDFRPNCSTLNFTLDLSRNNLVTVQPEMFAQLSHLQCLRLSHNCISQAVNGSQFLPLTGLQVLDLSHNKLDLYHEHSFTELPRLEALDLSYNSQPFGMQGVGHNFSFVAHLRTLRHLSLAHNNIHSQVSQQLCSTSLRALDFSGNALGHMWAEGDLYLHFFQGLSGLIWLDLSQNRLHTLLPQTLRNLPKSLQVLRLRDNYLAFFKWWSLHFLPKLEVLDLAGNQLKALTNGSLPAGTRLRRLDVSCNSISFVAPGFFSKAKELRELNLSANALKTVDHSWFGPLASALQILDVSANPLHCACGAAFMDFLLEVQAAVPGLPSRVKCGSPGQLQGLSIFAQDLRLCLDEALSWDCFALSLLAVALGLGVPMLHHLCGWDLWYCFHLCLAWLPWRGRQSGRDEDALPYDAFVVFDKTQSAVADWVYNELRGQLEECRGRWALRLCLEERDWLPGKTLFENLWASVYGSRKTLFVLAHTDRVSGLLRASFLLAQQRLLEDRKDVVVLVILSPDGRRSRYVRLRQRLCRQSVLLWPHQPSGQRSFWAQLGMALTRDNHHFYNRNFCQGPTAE
The experiment can be described thus: TLR9 inhibition reporter assay (HEK-Blue SEAP reporter). Particulars: HEK-Blue cells overexpressing human TLR9; ODN2006 5 nM; 22 hour incubation. In a few lines: as §1

pIC50: −log10 of the molar value.

In the case of `COc1ccc(-c2[nH]c3ccc(N4CCN(C5CC(C)(C)NC(C)(C)C5)CC4)cc3c2C(C)C)cc1OC` [Example 68, 2-(3,4-dimethoxyphenyl)-3-isopropyl-5-(4-(2,2,6,6-tetramethyl-112-piperidin-4-yl)piperazin-1-yl)-1H-indole], the negative logarithm of the IC50 (pIC50) is 7.47 against human TLR7, 7.96 against human TLR8 and 6.17 on human TLR9.
For `CCc1c(-c2ccc(OC)c(OC)c2)[nH]c2cc(C(C)C)c(N3CCN(C4CCN(C(C)C)CC4)CC3)cc12` [Example 69, 2-(3,4-dimethoxyphenyl)-3-ethyl-6-isopropyl-5-(4-(1-isopropylpiperidin-4-yl)piperazin-1-yl)-1H-indole], in that order: 5.94, 4.84 and 5.58.
As to `COc1ccc(-c2[nH]c3ccc(N4CCC(N5CCCC5)CC4)cc3c2C(C)C)cc1OC` [Example 70, 2-(3,4-dimethoxyphenyl)-3-isopropyl-5-(4-(pyrrolidin-1-yl)piperidin-1-yl)-1H-indole], the negative-log IC50 (pIC50) at human TLR7 was 6.89; on human TLR8 it was 8.51; against human TLR9 it was 5.77.
For `CNCCNC1CCN(c2ccc3[nH]c(-c4ccc(OC)c(OC)c4)c(C(C)C)c3c2)CC1` [Example 72, N1-(1-(2-(3,4-dimethoxyphenyl)-3-isopropyl-1H-indol-5-yl)piperidin-4-yl)-N2-methylethane-1,2-diamine], in that order: 7.82, 8.55 and 5.86.
For `COc1ccc(-c2[nH]c3ccc(N4CCC(N5CCNCC5)CC4)cc3c2C(C)C)cc1OC` [Example 73, 2-(3,4-dimethoxyphenyl)-3-isopropyl-5-(4-(piperazin-1-yl)piperidin-1-yl)-1H-indole], in that order: 7.20, 7.19 and 5.68.
Take `COc1ccc(-c2[nH]c3ccc(N4CCC(N5CCOCC5)CC4)cc3c2C(C)C)cc1OC` [Example 74, 4-(1-(2-(3,4-dimethoxyphenyl)-3-isopropyl-1H-indol-5-yl)piperidin-4-yl)morpholine]: the negative logarithm of the IC50 (pIC50) against human TLR7 was 7.21; against human TLR8, 7.82; at human TLR9, 5.28.
As for `COc1ccc(-c2[nH]c3ccc(N4CCC(NCCCN(C)C)CC4)cc3c2C(C)C)cc1OC` [Example 76, N1-(1-(2-(3,4-dimethoxyphenyl)-3-isopropyl-H-indol-5-yl)piperidin-4-yl)-N3,N3-dimethylpropane-1,3-diamine], the negative logarithm of the IC50 (pIC50) was 7.74 against human TLR7, 8.11 at human TLR8 and 6.11 against human TLR9.
Turning to `COc1ccc(-c2[nH]c3ccc(N4CCC(NCCCN(C)C)CC4)cc3c2C(C)C)cc1OC` [Example 77, N1-(1-(2-(3,4-dimethoxyphenyl)-3-isopropyl-H-indol-5-yl)piperidin-4-yl)-N3,N3-dimethylpropane-1,3-diamine], the negative logarithm of the IC50 (pIC50) against human TLR7 was 7.21; on human TLR8, 8.02; against human TLR9 it was 5.70.
For `CCN1CCN(C2CCN(c3ccc4[nH]c(-c5ccc(OC)c(OC)c5)c(C(C)C)c4c3)CC2)CC1` [Example 78, 2-(3,4-dimethoxyphenyl)-5-(4-(4-ethylpiperazin-1-yl)piperidin-1-yl)-3-isopropyl-1H-indole], in that order: 7.30, 7.85 and 6.03.
For `COc1ccc(-c2[nH]c3ccc(N4CCC(NC5CCN(C)CC5)CC4)cc3c2C(C)C)cc1OC` [Example 79, 1-(2-(3,4-dimethoxyphenyl)-3-isopropyl-1H-indol-5-yl)-N-(1-methylpiperidin-4-yl)piperidin-4-amine], in that order: 8.01, 8.33 and 6.19.
For `COc1ccc(-c2[nH]c3ccc(N4CCC(N5CC(C)OC(C)C5)CC4)cc3c2C(C)C)cc1OC` (stereo not drawn) [Example 80, 4-(1-(2-(3,4-dimethoxyphenyl)-3-isopropyl-H-indol-5-yl)piperidin-4-yl)-2,6-dimethylmorpholine], in that order: 6.89, 7.72 and 5.24.
As for `COc1ccc(-c2[nH]c3ccc(N4CCC(N(C)CCCN(C)C)CC4)cc3c2C(C)C)cc1OC` [Example 81, N1-(1-(2-(3,4-dimethoxyphenyl)-3-isopropyl-1H-indol-5-yl)piperidin-4-yl)-N1,N3,N3-trimethylpropane-1,3-diamine], the pIC50 against human TLR7 was 7.36; against human TLR8, 8.00; at human TLR9, 5.98.
For `CCN1CCCN(C2CCN(c3ccc4[nH]c(-c5ccc(OC)c(OC)c5)c(C(C)C)c4c3)CC2)CC1` [Example 84, 2-(3,4-dimethoxyphenyl)-5-(4-(4-ethyl-1,4-diazepan-1-yl)piperidin-1-yl)-3-isopropyl-1H-indole], in that order: 7.80, 8.33 and 6.00.

Usually pIC50 stands for the IC50 on a negative log10 scale, so that one unit is a factor of ten. A lower pIC50 goes with a high IC50.
